Structures are written as SMILES. The source made the active and inactive calls. The calls are words filed in the database; no cut-off is given here.

The target of assay [1] is T1, Pendrin (Homo sapiens, UniProt O43511).
T1 sequence (O43511 whole entry): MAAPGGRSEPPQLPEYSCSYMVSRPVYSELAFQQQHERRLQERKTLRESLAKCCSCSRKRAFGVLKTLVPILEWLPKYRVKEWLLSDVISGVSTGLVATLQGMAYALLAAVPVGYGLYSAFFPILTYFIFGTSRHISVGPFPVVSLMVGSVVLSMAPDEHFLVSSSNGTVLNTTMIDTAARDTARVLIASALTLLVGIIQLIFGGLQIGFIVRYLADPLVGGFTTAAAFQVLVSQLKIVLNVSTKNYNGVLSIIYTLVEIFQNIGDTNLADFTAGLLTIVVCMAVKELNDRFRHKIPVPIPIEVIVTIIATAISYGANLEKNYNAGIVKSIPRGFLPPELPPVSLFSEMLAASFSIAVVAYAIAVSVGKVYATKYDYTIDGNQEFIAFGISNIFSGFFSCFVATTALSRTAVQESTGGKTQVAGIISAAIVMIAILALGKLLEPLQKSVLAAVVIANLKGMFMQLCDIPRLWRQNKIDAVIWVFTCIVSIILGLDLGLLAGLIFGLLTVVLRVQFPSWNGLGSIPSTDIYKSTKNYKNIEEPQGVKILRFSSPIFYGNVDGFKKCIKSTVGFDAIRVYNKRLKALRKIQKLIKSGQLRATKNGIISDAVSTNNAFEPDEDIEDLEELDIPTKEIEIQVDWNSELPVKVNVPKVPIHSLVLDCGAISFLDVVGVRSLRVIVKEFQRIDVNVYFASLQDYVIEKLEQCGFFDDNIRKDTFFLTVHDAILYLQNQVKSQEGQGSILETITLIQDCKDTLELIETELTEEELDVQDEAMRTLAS
Nature of the assay: Inhibition of human pendrin expressed in FRT cells co-expressing EYFP-HIF assessed as reduction in pendrin-mediated C17NO3(-) exchange incubated for 10 mins by pH-sensitive fluorescent probe BCECF-AM based fluorescence assay relative to control. Type of assay: cell-based.

The target in assay [2] is T2, Band 3 anion transport protein (Mus musculus) (UniProt P04919).
T2 sequence (whole entry): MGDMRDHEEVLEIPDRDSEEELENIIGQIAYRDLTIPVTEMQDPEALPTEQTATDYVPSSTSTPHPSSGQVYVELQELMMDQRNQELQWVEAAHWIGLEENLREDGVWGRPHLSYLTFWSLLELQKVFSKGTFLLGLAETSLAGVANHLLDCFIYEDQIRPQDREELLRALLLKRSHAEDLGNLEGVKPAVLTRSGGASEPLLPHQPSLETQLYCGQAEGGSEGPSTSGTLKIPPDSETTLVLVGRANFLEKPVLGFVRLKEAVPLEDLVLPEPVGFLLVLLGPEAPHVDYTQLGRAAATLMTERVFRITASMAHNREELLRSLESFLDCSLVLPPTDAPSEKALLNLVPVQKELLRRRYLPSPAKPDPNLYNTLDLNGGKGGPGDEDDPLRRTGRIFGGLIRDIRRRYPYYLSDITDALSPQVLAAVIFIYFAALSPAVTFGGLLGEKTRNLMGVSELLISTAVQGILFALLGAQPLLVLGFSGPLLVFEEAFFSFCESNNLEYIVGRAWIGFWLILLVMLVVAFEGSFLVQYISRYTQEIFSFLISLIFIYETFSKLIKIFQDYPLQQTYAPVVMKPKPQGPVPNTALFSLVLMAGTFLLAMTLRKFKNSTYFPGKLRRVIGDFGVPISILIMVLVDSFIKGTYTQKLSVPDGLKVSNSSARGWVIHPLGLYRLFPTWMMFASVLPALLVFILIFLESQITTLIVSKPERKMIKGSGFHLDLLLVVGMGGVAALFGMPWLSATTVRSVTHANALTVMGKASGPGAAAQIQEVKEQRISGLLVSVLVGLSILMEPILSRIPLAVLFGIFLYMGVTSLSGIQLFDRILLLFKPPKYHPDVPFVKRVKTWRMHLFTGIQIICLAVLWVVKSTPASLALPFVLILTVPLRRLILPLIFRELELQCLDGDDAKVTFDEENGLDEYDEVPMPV
Nature of the assay: Inhibition of mouse Slc4a1 expressed in COS7 co-expressing EYFP-HIF assessed as effect on SCN(-) gradient at 25 uM by YFP-based fluorescence quenching assay.

Assay [3] deals with T3, Solute carrier family 12 member 2 (Homo sapiens) (UniProt P55011).
T3 sequence (whole entry): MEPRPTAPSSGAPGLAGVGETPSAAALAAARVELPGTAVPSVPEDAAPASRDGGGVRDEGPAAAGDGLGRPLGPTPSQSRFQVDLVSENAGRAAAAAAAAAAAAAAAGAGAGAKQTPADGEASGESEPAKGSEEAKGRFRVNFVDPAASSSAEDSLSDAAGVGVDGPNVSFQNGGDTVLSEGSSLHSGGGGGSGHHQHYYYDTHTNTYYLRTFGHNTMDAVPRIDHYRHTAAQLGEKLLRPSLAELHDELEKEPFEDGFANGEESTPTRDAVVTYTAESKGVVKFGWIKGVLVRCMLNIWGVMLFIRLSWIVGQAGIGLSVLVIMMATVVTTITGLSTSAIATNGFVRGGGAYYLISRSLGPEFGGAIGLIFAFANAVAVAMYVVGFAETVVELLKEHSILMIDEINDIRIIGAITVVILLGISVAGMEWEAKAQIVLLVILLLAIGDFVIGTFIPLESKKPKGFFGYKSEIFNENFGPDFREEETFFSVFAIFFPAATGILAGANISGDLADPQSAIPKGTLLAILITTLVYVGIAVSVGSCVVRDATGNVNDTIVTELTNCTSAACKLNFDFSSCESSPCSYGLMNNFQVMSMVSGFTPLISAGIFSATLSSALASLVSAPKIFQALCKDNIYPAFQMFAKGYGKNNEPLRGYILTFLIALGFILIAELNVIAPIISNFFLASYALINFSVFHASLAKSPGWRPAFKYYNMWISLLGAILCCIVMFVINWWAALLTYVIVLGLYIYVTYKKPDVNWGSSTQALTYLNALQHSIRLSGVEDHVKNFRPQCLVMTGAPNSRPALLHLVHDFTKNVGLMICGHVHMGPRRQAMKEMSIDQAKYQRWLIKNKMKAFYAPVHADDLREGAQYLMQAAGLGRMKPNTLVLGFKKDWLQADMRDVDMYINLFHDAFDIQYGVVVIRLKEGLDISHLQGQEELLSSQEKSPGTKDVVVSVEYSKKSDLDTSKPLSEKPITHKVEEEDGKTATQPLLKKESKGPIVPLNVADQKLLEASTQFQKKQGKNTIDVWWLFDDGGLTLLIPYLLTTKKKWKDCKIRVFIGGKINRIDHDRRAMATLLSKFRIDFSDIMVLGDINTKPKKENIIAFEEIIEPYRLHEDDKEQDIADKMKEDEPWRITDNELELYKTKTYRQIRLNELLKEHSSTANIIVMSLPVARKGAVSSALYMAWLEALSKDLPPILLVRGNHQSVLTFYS
Nature of the assay: Inhibition of NKCC1 in human bronchial epithelial cells assessed as effect on short-circuit current at 25 uM pre-incubated for 30 mins.

`Cc1n[nH]c(-c2cc(S(=O)(=O)NC3CCCc4ccccc43)c(C)s2)c1C` (stereo not drawn): in assay [1], the IC50 (as a rule, the concentration that gives 50% inhibition) came to 5 µM. The inhibition entry in assay [2] was “inactive”. Consider `Cn1nc(COc2cccc(F)c2)c2c1CCN(C(=O)Nc1ccc(Cl)cc1)C2`, for which the inhibition entry in assay [3] was “inactive”.

The values above are taken from ChEMBL document CHEMBL4417636, “Small molecule inhibitors of pendrin ion exchange and pharmaceutical compositions” (2017).
